Target: T1, ACE2: SARS-CoV-2 Spike complex (UniProt P0DTC2+Q9BYF1)
T1 construct: BPS Bioscience Cat: 79936; inferred from capture on a nickel-coated plate; inferred from detection with anti-mouse Fc-HRP; purchased BPS Bioscience 79936
Test: biochemical
Type: binding, human ACE2 / SARS-CoV-2 spike

Question: `CC(=O)N[C@H]1[C@H]([C@H](O)[C@H](O)CO)O[C@](OP(=O)([O-])OC[C@H]2O[C@@H](n3ccc(N)nc3=O)[C@H](O)[C@@H]2O)(C(=O)O)C[C@@H]1O.[Na+]` [cytidine-5-monophospho-N-acetylneuraminic acid sodium salt] was tested. Which “Lab Results” value did it give?
Answer: The value was “P (key: P: positive (interacting); N: negative (non-interacting))”.

Question: With `N.O=C(O)C(=O)C[C@@H](O)[C@@H](O)[C@H](O)[C@H](O)CO` [2-keto-3-deoxyoctonate ammonium salt, 2-Keto-3-deoxyoctonate ammonium salt] as the compound, how does the “Lab Results” value read?
Answer: Its value is “P (key: P: positive (interacting); N: negative (non-interacting))”.

Question: Which “Lab Results” value does the source give for `O=C(CO)N[C@H]1[C@H]([C@H](O)[C@H](O)CO)O[C@](O)(C(=O)O)C[C@@H]1O` [N-Glycolylneuraminic, N-glycolylneuraminic acid] here?
Answer: Its value is “P (key: P: positive (interacting); N: negative (non-interacting))”.

Question: `OC[C@H]1O[C@H](OC[C@H]2O[C@H](OC[C@H]3OC(O)[C@@H](O)[C@@H](O[C@H]4O[C@H](CO)[C@@H](O)[C@H](O)[C@@H]4O)[C@@H]3O)[C@@H](O)[C@@H](O[C@H]3O[C@H](CO)[C@@H](O)[C@H](O)[C@@H]3O)[C@@H]2O)[C@@H](O)[C@@H](O)[C@@H]1O` (stereo partly drawn) [3 α ,6 α -Mannopentaose] was tested. Which “Lab Results” value did it give?
Answer: The value was “N (key: P: positive (interacting); N: negative (non-interacting))”.

Question: And the “activity against the complex of the spike protein and ACE2” value?
Answer: The value was “inactive”.

Question: Which IC50 does the source give for `CC(C)CN(C[C@@H](O)[C@H](Cc1ccccc1)NC(=O)O[C@H]1CO[C@H]2OCC[C@H]21)S(=O)(=O)c1ccc(N)cc1` [darunavir, Darunavir, reference compound] here?
Answer: The IC50 was 0.0055 µM.

Question: What about the “Lab Results” value of the same compound?
Answer: Its value is “P (key: P: positive (interacting); N: negative (non-interacting))”.

Question: With `CC(=O)N[C@H]1C(O)O[C@H](CO)[C@@H](O[C@@H]2O[C@H](CO)[C@H](O)[C@H](O)[C@H]2O)[C@@H]1O` (stereo partly shown) [N-Acetyllactosamine] as the compound, how does the “Lab Results” value read?
Answer: The value was “P (key: P: positive (interacting); N: negative (non-interacting))”.

Question: For `CC(=O)N[C@H]1[C@H]([C@H](O)[C@H](O)CO)OC(O)(C(=O)O)C[C@@H]1O` (stereo partly shown) [N-acetyl-neuraminic, N-acetyl-neuraminic acid], which IC50 is on record?
Answer: The IC50 was 0.019 µM.

Question: And the “Lab Results” value?
Answer: Its value is “P (key: P: positive (interacting); N: negative (non-interacting))”.

From article PMC9100109, “UnbiasedDTI: Mitigating Real-World Bias of Drug-Target Interaction Prediction by Using Deep Ensemble-Balanced Learning” (Molecules, 2022)
